Tested on: a variety of test species
Assay: Post-emergence herbicidal activity (glasshouse, sprayed 8 days after sowing, evaluated after 13 days)
Format: in vivo
Settings: scale 0-5
Method: Seeds of a variety of test species were sown in standard soil in pots. After 8 days cultivation (post-emergence) under controlled conditions in a glasshouse (at 24/16° C., day/night; 14 hours light; 65% humidity), the plants were sprayed with an aqueous spray solution derived from the formulation of the technical active ingredient in acetone/water (50:50) solution containing 0.5% Tween 20 (polyoxyethelyene sorbitan monolaurate, CAS RN 9005-64-5). The test plants were then grown in a glasshouse under controlled conditions (at 24/16° C., day/night; 14 hours light; 65% humidity) and watered twice daily. After 13 days, the test was evaluated (5=total damage to plant; 0=no damage to plant).

| Compound | Post-emergence herbicidal damage score, ABUTH (Abutilon theophrasti) (1000 g/ha) | Post-emergence herbicidal damage score, ALOMY (Alopecurus myosuroides) (1000 g/ha) | Post-emergence herbicidal damage score, AMARE (Amaranthus retroflexus) (1000 g/ha) | Post-emergence herbicidal damage score, ECHCG (Echinochloa crus-galli) (1000 g/ha) | Post-emergence herbicidal damage score, SETFA (Setaria faberi) (1000 g/ha) | Post-emergence herbicidal damage score, ZEAMX (Zea mays) (1000 g/ha) | Post-emergence herbicidal damage score, ABUTH (Abutilon theophrasti) (250 g/ha) | Post-emergence herbicidal damage score, ALOMY (Alopecurus myosuroides) (250 g/ha) | Post-emergence herbicidal damage score, AMARE (Amaranthus retroflexus) (250 g/ha) | Post-emergence herbicidal damage score, ECHCG (Echinochloa crus-galli) (250 g/ha) | Post-emergence herbicidal damage score, SETFA (Setaria faberi) (250 g/ha) | Post-emergence herbicidal damage score, ZEAMX (Zea mays) (250 g/ha) |
| --- | --- | --- | --- | --- | --- | --- | --- | --- | --- | --- | --- | --- |
| CCOC(C)(CC)c1cc(N2C(=O)C(C)=C(Cl)C2O)nn1C (mixture of isomers) [Compound B14] | 5 | 3 | 4 | 4 | 4 | 1 | – | – | – | – | – | – |
| CC(C)=Cc1cc(N2C(=O)C(C)=C(Cl)C2O)nn1C (stereo not drawn) [Compound B7, 3-chloro-2-hydroxy-4-methyl-1-[1-methyl-5-(2-methylprop-1-enyl)pyrazol-3-yl]-2H-pyrrol-5-one] | 4 | 0 | 3 | 1 | 5 | 2 | – | – | – | – | – | – |
| CC1=C(Cl)C(O)N(c2nn(C)c(C(C)(C)CCl)c2Cl)C1=O (stereo not drawn) [Compound D3] | 1 | 0 | 0 | 2 | 1 | 1 | – | – | – | – | – | – |
| CC1=C(Cl)C(O)N(c2cc3n(n2)CCC3(C)C)C1=O (stereo not drawn) [Compound G2] | – | – | – | – | – | – | 5 | 5 | 5 | 5 | 5 | 4 |
| CC1=C(Cl)C(O)N(c2cc(/C=C/C(C)(C)C)n(C)n2)C1=O (stereo not drawn) [Compound B11] | 0 | 0 | 0 | 0 | 0 | 0 | – | – | – | – | – | – |
| CC1=C(Cl)C(O)N(c2cc(C(F)(F)F)n(CC(F)(F)F)n2)C1=O (stereo not drawn) [Compound C5] | 2 | 0 | 1 | 0 | 0 | 3 | – | – | – | – | – | – |
| CC1=C(Cl)C(O)N(c2cc(C(F)(F)F)n(C(C)C)n2)C1=O (stereo not drawn) [Compound C4] | 0 | 0 | 1 | 1 | 1 | 1 | – | – | – | – | – | – |
| COC1=C(Cl)C(OC(C)=O)N(c2cc(C(C)(C)C)n(C)n2)C1=O (stereo not drawn) [Compound F3, [1-(5-tert-butyl-1-methyl-pyrazol-3-yl)-3-chloro-4-methoxy-5-oxo-2H-pyrrol-2-yl] acetate] | 5 | 5 | 5 | 5 | 5 | 3 | – | – | – | – | – | – |
| CC1=C(Cl)C(O)N(c2cc(CCC(C)C)n(C)n2)C1=O (stereo not drawn) [Compound B12] | 1 | 0 | 0 | 0 | 0 | 0 | – | – | – | – | – | – |
| CC1=C(Cl)C(O)N(c2cc3n(n2)CCCC3(C)C)C1=O (stereo not drawn) [Compound G4] | 5 | 5 | 5 | 5 | 5 | 2 | – | – | – | – | – | – |
| CC1=C(Cl)C(O)N(c2cc(S(C)(=O)=O)n(C)n2)C1=O (stereo not drawn) [Compound B20] | 5 | 3 | 5 | 4 | 5 | 0 | – | – | – | – | – | – |
| Cn1nc(N2C(=O)C(CCl)=C(Cl)C2O)cc1C(C)(C)C (stereo not drawn) [Compound E1] | 4 | 4 | 1 | 5 | 5 | 0 | – | – | – | – | – | – |
| CCC1=C(Br)C(O)N(c2nn(C)c(C(C)(C)C)c2C#N)C1=O (stereo not drawn) [Compound H6] | 1 | 2 | 2 | 1 | 2 | 0 | – | – | – | – | – | – |
| CC1=C(Br)C(O)N(c2cc3n(n2)CCSC3(C)C)C1=O (stereo not drawn) [Compound H9] | 4 | 5 | 4 | 3 | 3 | 0 | – | – | – | – | – | – |
| CC1=C(Cl)C(O)N(c2cc(Cl)n(C)n2)C1=O (stereo not drawn) [Compound B9] | 5 | 4 | 5 | 5 | 5 | 1 | – | – | – | – | – | – |
| CC1=C(Cl)C(OC(=O)OCC(C)C)N(c2cc(C(C)(C)C)n(C)n2)C1=O (stereo not drawn) [Compound F1] | 5 | 4 | 5 | 5 | 5 | 3 | – | – | – | – | – | – |
| CC1=C(Cl)C(O)N(c2cc(C(C)(C)C#N)n(C)n2)C1=O (stereo not drawn) [Compound B23] | 4 | 3 | 5 | 5 | 4 | 1 | – | – | – | – | – | – |
| CC1=C(Br)C(O)N(c2cc(C(C)(C)C)[nH]n2)C1=O (stereo not drawn) [Compound H2] | 5 | 3 | 5 | 2 | 4 | 2 | – | – | – | – | – | – |
| CC1=C(Cl)C(O)N(c2nn(C)c(C(C)(C)C)c2Cl)C1=O (stereo not drawn) [Compound D2] | 3 | 1 | 0 | 2 | 2 | 0 | – | – | – | – | – | – |
| CC1=C(Br)C(O)N(c2nn(C)c(C(C)(C)C)c2C#N)C1=O (stereo not drawn) [Compound H5] | 2 | 1 | 2 | 1 | 1 | 0 | – | – | – | – | – | – |
| CC1=C(Cl)C(O)N(c2cc(C)n(C(F)(F)F)n2)C1=O (stereo not drawn) [Compound C9] | 1 | 0 | 1 | 1 | 0 | 1 | – | – | – | – | – | – |
| CC1=C(Cl)C(O)N(c2cc(Cc3ccccc3)n(C)n2)C1=O (stereo not drawn) [Compound B32] | 5 | 2 | 3 | 3 | 4 | 0 | – | – | – | – | – | – |
| CC1=C(Cl)C(O)N(c2cc(C(C)C(F)(F)F)n(C)n2)C1=O (mixture of isomers) [Compound B21] | 4 | 5 | 5 | 5 | 5 | 1 | – | – | – | – | – | – |
